{"source": "patent US20230310464A1", "about": "“USE OF C[…] THE TREATMENT OF SEIZURES ASSOCIATED WITH RARE […] SYNDROMES RELATED TO BRAIN INJURY” (GW Research Limited, priority 2020, published 2023)", "tested_on": "seizures associated with hypoxic ischaemic encephalopathy (HIE) or anoxia at birth", "test": "Open label, expanded-access program: seizure frequency recorded by caregivers in a diary, relative to baseline", "format": "in vivo, human", "parameters": "reduction in tonic seizures over the treatment period / reduction in spasms over the treatment period / reduction in absence seizures over the treatment period / reduction in tonic-clonic seizures over the treatment period / reduction in myoclonic seizures over the treatment period: concentration or dose not given beside the values; Seizure frequency, Tonic / Seizure frequency, Spasm / Seizure frequency, Absence / Seizure frequency, Tonic-clonic / Seizure frequency, Focal with impairment / Seizure frequency, Atonic / Seizure frequency, Focal without impairment / Seizure frequency, Focal secondary generalisation / Seizure frequency, Myoclonic: unit not given here", "method": "Subjects were required to be on one or more AEDs at stable doses for a minimum of two weeks prior to baseline and to have stable vagus nerve stimulation (VNS) settings and ketogenic diet ratios for a minimum of four weeks prior to baseline.\nDose was then increased weekly by 5 mg/kg/day to a goal of 20 to 25 mg/kg/day.\nModifications were made to concomitant AEDs as per clinical indication.\nSeizure frequency, intensity, and duration were recorded by caregivers in a diary during a baseline period of at least 28 days. Changes in seizure frequency relative to baseline were calculated after at least 2 weeks and at defined timepoints of treatment.\nPatients may be defined as responders if they had more than 50% reduction in seizure frequency compared to baseline. The percent change in seizure frequency was calculated as follows: […]\nThe percent change of seizure frequency may be calculated for any time interval where seizure number has been recorded. For the purpose of this example the percent change of seizure frequency for the end of the treatment period was calculated as follows: […]", "key": {"[1]": {"settings": "Patient 1, 2 weeks, CBD 8.3 mg/kg/day"}, "[2]": {"settings": "Patient 1, 4 weeks, CBD 20.8 mg/kg/day"}, "[3]": {"settings": "Patient 1, 8 weeks, CBD 25.2 mg/kg/day"}, "[4]": {"settings": "Patient 1, 16 weeks, CBD 23.4 mg/kg/day"}, "[5]": {"settings": "Patient 1, 24 weeks, CBD 22.9 mg/kg/day"}, "[6]": {"settings": "Patient 1, 36 weeks, CBD 25.7 mg/kg/day"}, "[7]": {"settings": "Patient 1, 48 weeks, CBD 21.8 mg/kg/day"}, "[8]": {"settings": "Patient 1, treated for 48 weeks, vs baseline"}, "[9]": {"settings": "Patient 2, 4 weeks, CBD 20.0 mg/kg/day"}, "[10]": {"settings": "Patient 2, 8 weeks, CBD 25.0 mg/kg/day"}, "[11]": {"settings": "Patient 2, 16 weeks, CBD 25.0 mg/kg/day"}, "[12]": {"settings": "Patient 2, 24 weeks, CBD 25.0 mg/kg/day"}, "[13]": {"settings": "Patient 2, 36 weeks, CBD 25.0 mg/kg/day"}, "[14]": {"settings": "Patient 2, 48 weeks, CBD 25.0 mg/kg/day"}, "[15]": {"settings": "Patient 2, 60 weeks, CBD 25.0 mg/kg/day"}, "[16]": {"settings": "Patient 2, 72 weeks, CBD 25.0 mg/kg/day"}, "[17]": {"settings": "Patient 2, 84 weeks, CBD 25.0 mg/kg/day"}, "[18]": {"settings": "Patient 2, treated for 84 weeks, vs baseline"}, "[19]": {"settings": "Patient 3, 4 weeks, CBD 5.0 mg/kg/day"}, "[20]": {"settings": "Patient 3, 8 weeks, CBD 20.0 mg/kg/day"}, "[21]": {"settings": "Patient 3, 12 weeks, CBD 25.0 mg/kg/day"}, "[22]": {"settings": "Patient 3, 16 weeks, CBD 25.0 mg/kg/day"}, "[23]": {"settings": "Patient 3, 24 weeks, CBD 30.0 mg/kg/day"}, "[24]": {"settings": "Patient 3, 36 weeks, CBD 40.0 mg/kg/day"}, "[25]": {"settings": "Patient 3, 48 weeks, CBD 50.0 mg/kg/day"}, "[26]": {"settings": "Patient 3, 72 weeks, CBD 50.0 mg/kg/day"}, "[27]": {"settings": "Patient 3, 84 weeks, CBD 50.0 mg/kg/day"}, "[28]": {"settings": "Patient 3, 96 weeks, CBD 50.0 mg/kg/day"}, "[29]": {"settings": "Patient 3, 108 weeks, CBD 50.0 mg/kg/day"}, "[30]": {"settings": "Patient 3, 120 weeks, CBD 50.0 mg/kg/day"}, "[31]": {"settings": "Patient 3, 132 weeks, CBD 50.0 mg/kg/day"}, "[32]": {"settings": "Patient 4, 4 weeks, CBD 5.0 mg/kg/day"}, "[33]": {"settings": "Patient 4, 8 weeks, CBD 5.0 mg/kg/day"}, "[34]": {"settings": "Patient 4, 12 weeks, CBD 10.0 mg/kg/day"}, "[35]": {"settings": "Patient 4, 24 weeks, CBD 15.0 mg/kg/day"}, "[36]": {"settings": "Patient 4, 36 weeks, CBD 15.0 mg/kg/day"}}}
{"smiles": "C=C(C)[C@@H]1CCC(C)=C[C@H]1c1c(O)cc(CCCCC)cc1O", "note": "[CBD, cannabidiol]", "values": [{"measurement": "Seizure frequency, Spasm", "setting": "[1]", "result": 108.0}, {"measurement": "Seizure frequency, Tonic", "setting": "[1]", "result": 1044.0}, {"measurement": "Seizure frequency, Spasm", "setting": "[2]", "result": 102.8}, {"measurement": "Seizure frequency, Tonic", "setting": "[2]", "result": 904.0}, {"measurement": "Seizure frequency, Spasm", "setting": "[3]", "result": 50.8}, {"measurement": "Seizure frequency, Tonic", "setting": "[3]", "result": 770.0}, {"measurement": "Seizure frequency, Spasm", "setting": "[4]", "result": 78.0}, {"measurement": "Seizure frequency, Tonic", "setting": "[4]", "result": 764.8}, {"measurement": "Seizure frequency, Spasm", "setting": "[5]", "result": 48.0}, {"measurement": "Seizure frequency, Tonic", "setting": "[5]", "result": 917.2}, {"measurement": "Seizure frequency, Spasm", "setting": "[6]", "result": 51.2}, {"measurement": "Seizure frequency, Tonic", "setting": "[6]", "result": 634.0}, {"measurement": "Seizure frequency, Spasm", "setting": "[7]", "result": 69.2}, {"measurement": "Seizure frequency, Tonic", "setting": "[7]", "result": 424.8}, {"measurement": "reduction in spasms over the treatment period", "setting": "[8]", "result": 44.2, "unit": "%"}, {"measurement": "reduction in tonic seizures over the treatment period", "setting": "[8]", "result": 59.8, "unit": "%"}, {"measurement": "Seizure frequency, Absence", "setting": "[9]", "result": 52.0}, {"measurement": "Seizure frequency, Spasm", "setting": "[9]", "result": 440.0}, {"measurement": "Seizure frequency, Absence", "setting": "[10]", "result": 52.0}, {"measurement": "Seizure frequency, Spasm", "setting": "[10]", "result": 600.0}, {"measurement": "Seizure frequency, Absence", "setting": "[11]", "result": 12.0}, {"measurement": "Seizure frequency, Spasm", "setting": "[11]", "result": 632.0}, {"measurement": "Seizure frequency, Absence", "setting": "[12]", "result": 24.0}, {"measurement": "Seizure frequency, Spasm", "setting": "[12]", "result": 580.0}, {"measurement": "Seizure frequency, Absence", "setting": "[13]", "result": 0}, {"measurement": "Seizure frequency, Spasm", "setting": "[13]", "result": 560.0}, {"measurement": "Seizure frequency, Absence", "setting": "[14]", "result": 0}, {"measurement": "Seizure frequency, Spasm", "setting": "[14]", "result": 490.0}, {"measurement": "Seizure frequency, Absence", "setting": "[15]", "result": 0}, {"measurement": "Seizure frequency, Spasm", "setting": "[15]", "result": 196.0}, {"measurement": "Seizure frequency, Absence", "setting": "[16]", "result": 0}, {"measurement": "Seizure frequency, Spasm", "setting": "[16]", "result": 300.0}, {"measurement": "Seizure frequency, Absence", "setting": "[17]", "result": 0}, {"measurement": "Seizure frequency, Spasm", "setting": "[17]", "result": 340.0}, {"measurement": "reduction in absence seizures over the treatment period", "setting": "[18]", "result": 100, "unit": "%"}, {"measurement": "reduction in spasms over the treatment period", "setting": "[18]", "result": 41.4, "unit": "%"}, {"measurement": "Seizure frequency, Focal with impairment", "setting": "[19]", "result": 43.0}, {"measurement": "Seizure frequency, Tonic", "setting": "[19]", "result": 193.0}, {"measurement": "Seizure frequency, Tonic-clonic", "setting": "[19]", "result": 2.0}, {"measurement": "Seizure frequency, Focal with impairment", "setting": "[20]", "result": 132.0}, {"measurement": "Seizure frequency, Tonic", "setting": "[20]", "result": 132.0}, {"measurement": "Seizure frequency, Tonic-clonic", "setting": "[20]", "result": 0}, {"measurement": "Seizure frequency, Focal with impairment", "setting": "[21]", "result": 38.0}, {"measurement": "Seizure frequency, Tonic", "setting": "[21]", "result": 123.0}, {"measurement": "Seizure frequency, Tonic-clonic", "setting": "[21]", "result": 0}, {"measurement": "Seizure frequency, Focal with impairment", "setting": "[22]", "result": 46.0}, {"measurement": "Seizure frequency, Tonic", "setting": "[22]", "result": 120.0}, {"measurement": "Seizure frequency, Tonic-clonic", "setting": "[22]", "result": 6.0}, {"measurement": "Seizure frequency, Focal with impairment", "setting": "[23]", "result": 51.2}, {"measurement": "Seizure frequency, Tonic", "setting": "[23]", "result": 122.0}, {"measurement": "Seizure frequency, Tonic-clonic", "setting": "[23]", "result": 4.8}, {"measurement": "Seizure frequency, Tonic", "setting": "[24]", "result": 124.8}, {"measurement": "Seizure frequency, Tonic-clonic", "setting": "[24]", "result": 20.0}, {"measurement": "Seizure frequency, Focal with impairment", "setting": "[25]", "result": 38.8}, {"measurement": "Seizure frequency, Tonic", "setting": "[25]", "result": 136.0}, {"measurement": "Seizure frequency, Tonic-clonic", "setting": "[25]", "result": 11.2}, {"measurement": "Seizure frequency, Focal with impairment", "setting": "[26]", "result": 53.0}, {"measurement": "Seizure frequency, Tonic", "setting": "[26]", "result": 94.7}, {"measurement": "Seizure frequency, Tonic-clonic", "setting": "[26]", "result": 4.0}, {"measurement": "Seizure frequency, Focal with impairment", "setting": "[27]", "result": 53.0}, {"measurement": "Seizure frequency, Tonic", "setting": "[27]", "result": 72.0}, {"measurement": "Seizure frequency, Tonic-clonic", "setting": "[27]", "result": 5.7}, {"measurement": "Seizure frequency, Focal with impairment", "setting": "[28]", "result": 46.3}, {"measurement": "Seizure frequency, Tonic", "setting": "[28]", "result": 70.0}, {"measurement": "Seizure frequency, Tonic-clonic", "setting": "[28]", "result": 11.6}, {"measurement": "Seizure frequency, Focal with impairment", "setting": "[29]", "result": 46.4}, {"measurement": "Seizure frequency, Tonic", "setting": "[29]", "result": 35.0}, {"measurement": "Seizure frequency, Tonic-clonic", "setting": "[29]", "result": 10.4}, {"measurement": "Seizure frequency, Focal with impairment", "setting": "[30]", "result": 62.8}, {"measurement": "Seizure frequency, Tonic", "setting": "[30]", "result": 46.8}, {"measurement": "Seizure frequency, Tonic-clonic", "setting": "[30]", "result": 9.8}, {"measurement": "Seizure frequency, Focal with impairment", "setting": "[31]", "result": 77.2}, {"measurement": "Seizure frequency, Tonic", "setting": "[31]", "result": 54.4}, {"measurement": "Seizure frequency, Tonic-clonic", "setting": "[31]", "result": 12.0}, {"measurement": "Seizure frequency, Atonic", "setting": "[32]", "result": 0}, {"measurement": "Seizure frequency, Tonic", "setting": "[32]", "result": 4.0}, {"measurement": "Seizure frequency, Tonic-clonic", "setting": "[32]", "result": 13.0}, {"measurement": "Seizure frequency, Atonic", "setting": "[33]", "result": 0}, {"measurement": "Seizure frequency, Tonic", "setting": "[33]", "result": 3.0}, {"measurement": "Seizure frequency, Tonic-clonic", "setting": "[33]", "result": 18.0}, {"measurement": "Seizure frequency, Atonic", "setting": "[34]", "result": 0}, {"measurement": "Seizure frequency, Tonic", "setting": "[34]", "result": 0}, {"measurement": "Seizure frequency, Tonic-clonic", "setting": "[34]", "result": 10.0}, {"measurement": "Seizure frequency, Atonic", "setting": "[35]", "result": 6.0}, {"measurement": "Seizure frequency, Tonic", "setting": "[35]", "result": 0}, {"measurement": "Seizure frequency, Tonic-clonic", "setting": "[35]", "result": 0.6}, {"measurement": "Seizure frequency, Atonic", "setting": "[36]", "result": 1.7}, {"measurement": "Seizure frequency, Tonic", "setting": "[36]", "result": 0}]}
